Laboratory results reported in paper PMC8037310, “Thrombin-Derived Peptides Potentiate the Activity of Gram-Positive-Specific Antibiotics against Gram-Negative Bacteria” (Molecules, 2021).
Values joined by “and” are separate entries in the source; they are usually repeats but may differ in a detail not shown here. Equal values may be shown once. Read-outs that look alike come from different tables or passages of the source. Square brackets hold non-standard residues; d marks the D form. Peptide text beside a SMILES is read from it.

How the values were obtained:
[1] = test system: defibrinated sheep blood (red blood cells); assay: Hemolysis assay; format: cell-based; details: 200 µg/mL compound, 20 h incubation at 37 °C with defibrinated sheep blood, PBS 0.002% Tween20, absorbance 415 nm, relative to 0.1% Triton X-100; n=3 technical replicates
Protocol: Defibrinated sheep blood (Thermo Fisher Scientific) and a phosphate-buffered saline (PBS) buffer containing 0.002% Tween20 were used in this assay. The red blood cells were washed with buffer followed by centrifugation (400 g for 15 min at 4 °C). The red blood cells were then normalized to obtain a positive control read-out around 2.5 at 415 nm to stay in the linear range with the maximum sensitivity. A serial dilution of the compounds (200–1.56 µg/mL, 75 µL) was prepared in a 96-well plate. Each plate contained a positive control (0.1% Triton X-100 final concentration, 75 µL) and the negative control (buffer, 75 µL). After addition of normalized blood cells (75 µL), the plates were incubated for 20 h at 37 °C at 500 rpm. The plates were centrifuged (800× g for 5 min at room temperature). For the next step flat-bottom polystyrene plates were prepared with 100 µL buffer in each well. Aliquots of 25 µL supernatant from the centrifuged plates were then transferred to their respective wells in the flat-bottom plate. Absorbance values where measured at 415 nm and corrected for background (negative control) and transformed to a percentage hemolysis relative to the positive control.

E. coli BW25113 [2] = format: cell-based, Escherichia coli; details: for FICi: BW25113, 20 h; for MICpep: synergist alone, E. coli BW25113, from checkerboard with rifampicin; for MSCpep: synergist concentration in the combination with rifampicin giving the lowest FICi; for MSCpep / MSCrif: E. coli BW25113; for MSCrif: rifampicin concentration in the combination giving the lowest FICi
Protocol: (§1) All peptides were screened for antimicrobial activity against E. coli BW25113, E. coli ATCC25922, and E. coli W3110. A select group of the peptides was further tested against E. coli mcr-1, E. coli EQASmcr-1 (EQAS 2016 412016126), E. coli EQASmcr-2 (EQAS 2016 KP37), E. coli EQASmcr-3 (EQAS 2017 2013-SQ352), K. pneumoniae ATCC13883, P. aeruginosa ATCC27853, and A. baumannii ATCC17978. The antimicrobial assay was performed according to CLSI guidelines. Bacteria were plated out directly from their glycerol stocks on blood agar plates, incubated overnight at 37 °C, and then kept in the fridge. The blood agar plates were only used for 2 weeks and then replaced.
(§2) One colony from a blood agar plates was inoculated in Lysogeny Broth (LB) at 37 °C until a 0.5 optical density at 600 nm (OD600) was reached (compared to the sterility control of LB). The bacterial suspension was diluted in fresh LB to 2.0 × 10^6 CFU/mL. The serial dilutions were prepared in polypropylene microtiter plates: a stock of the test compounds was prepared with a 2x final concentration in LB. Moreover, 100 µL of the stock was added to the wells of the top row of which 50 µL was used for the serial dilution. The bottom row of each plate was used as the positive (50 µL of LB) and negative controls (100 µL of LB) (6 wells each). Furthermore, 50 µL of the 2.0 × 10^6 CFU/mL bacterial stock was added to each well except for the negative controls, adding up to a total volume of 100 µL per well. The plates were sealed with a breathable seal and incubated for 20 h at 37 °C and 600 rpm.
(§3) Two 96-well plates were required per compound. A serial dilution of the compound was performed on two plates from row A–G using with LB as medium. Row H was filled with 25 µL medium. On a separate plate a negative control (8 wells, 100 μL medium) was prepared. For all concentrations of antibiotic a specific stock was prepared. 25 µL medium was added to the 0 µg/mL antibiotic columns (plate I, column 1–3). Of each antibiotic stock 25 µL was added to three columns to obtain triplicates for every condition. Both plates contained 50 µL in each well to which 50 µL bacterial stock was added (see the protocol of the MIC assays) and the plates were sealed. After incubation for 20 h at 37 °C while shaking, the breathable seals were removed and the density of the bacterial suspensions measured at 600 nm (OD600) using a Tecan Spark plate reader. The OD600 values were transformed to a 2D gradient with the negative control as minimum and the positive control (wells G1, G2, and G3) as maximum in excel. The FICi was calculated using Equation (1) with a FICi ≤ 0.5 indicating synergy. FICi = (MSCa/MICa) + (MSCb/MICb),(1)
(§4) Calculation of the FICi: MSCa = concentration of the […] in combination with the antibiotic that results in the lowest FICi. MICa = MIC of the antibiotic without synergist (row G). MSCb = concentration of the synergist in combination with the antibiotic that results in the lowest FICi. MICb = MIC of the synergist itself (Column 1–3, plate I).

E. coli BW25113 [3] = assay: Checkerboard assay with erythromycin; format: cell-based, Escherichia coli; details: for MSCery: erythromycin concentration in the combination with the synergist giving the lowest FICi, E. coli BW25113; for MIC of the peptide (MICpep): synergist alone, from checkerboard with erythromycin; for MIC of the peptide (MICpep) / MSCpeptide, minimum synergistic concentration: E. coli BW25113, LB, 20 h 37 °C; for MSCpeptide, minimum synergistic concentration: synergist concentration in the combination with erythromycin giving the lowest FICi, OD600; for FICi: with erythromycin vs E. coli BW25113, synergy defined as FICi ≤ 0.5
Protocol: as §1, §2, §3, §4

Structure (SMILES)	MICpep (E. coli BW25113 [2]) [µg/mL]	MIC of the peptide (MICpep) (E. coli BW25113 [3]) [µg/mL]	Hemolysis [1]	FICi (E. coli BW25113 [2])	MSCpep (E. coli BW25113 [2]) [µg/mL]	MSCery (E. coli BW25113 [3]) [µg/mL]	MSCpeptide, minimum synergistic concentration (E. coli BW25113 [3]) [µg/mL]	FICi (E. coli BW25113 [3])	MSCrif (E. coli BW25113 [2]) [µg/mL]
CC[C@H](C)[C@H](NC(=O)[C@@H](NC(=O)[C@H](C)NC(=O)[C@H](CCC(N)=O)NC(=O)[C@@H](NC(=O)[C@H](Cc1c[nH]c2ccccc12)NC(=O)[C@H](CCCCN)NC(=O)[C@H](CCCCN)NC(=O)[C@H](CC(C)C)NC(=O)[C@H](CCCNC(=N)N)NC(=O)[C@H](Cc1ccccc1)NC(=O)[C@@H](N)C(C)C)[C@@H](C)CC)C(C)C)C(N)=O [compound 17] (H-VFRLKKWIQAVI-NH2)	25	12.5	20.7% and 21%	0.2656	6.25	6.25	6.25	> 0.5	–
CC[C@H](C)[C@H](NC(=O)[C@H](C)NC(=O)[C@H](CCCCN)NC(=O)[C@H](CCC(N)=O)NC(=O)[C@@H](NC(=O)[C@H](Cc1c[nH]c2ccccc12)NC(=O)[C@H](CCCCN)NC(=O)[C@H](CCCCN)NC(=O)[C@H](CC(C)C)NC(=O)[C@H](CCCNC(=N)N)NC(=O)[C@H](Cc1ccccc1)NC(=O)[C@@H](N)C(C)C)[C@@H](C)CC)C(N)=O [compound 18] (H-VFRLKKWIQKAI-NH2)	50	50	2.3% and 2%	0.0781	3.125	12.5	3.125	0.1250	–
CC[C@H](C)[C@H](NC(=O)[C@@H](NC(=O)[C@H](CCCCN)NC(=O)[C@H](CCC(N)=O)NC(=O)[C@@H](NC(=O)[C@H](Cc1c[nH]c2ccccc12)NC(=O)[C@H](CCCCN)NC(=O)[C@H](CCCCN)NC(=O)[C@H](CC(C)C)NC(=O)[C@H](CCCNC(=N)N)NC(=O)[C@H](Cc1ccccc1)NC(=O)[C@@H](N)C(C)C)[C@@H](C)CC)C(C)C)C(=O)O [peptide 1] (H-VFRLKKWIQKVI-OH)	200	200	0.1% and 0%	–	12.5	12.5	25	–	0.25
CC[C@H](C)[C@H](NC(=O)[C@@H](NC(=O)[C@H](CCCCN)NC(=O)[C@H](CCC(N)=O)NC(=O)[C@@H](NC(=O)[C@H](Cc1c[nH]c2ccccc12)NC(=O)[C@H](CCCCN)NC(=O)[C@H](CCCCN)NC(=O)[C@H](CC(C)C)NC(=O)[C@H](CCCNC(=N)N)NC(=O)[C@H](Cc1ccccc1)NC(=O)[C@@H](NC(C)=O)C(C)C)[C@@H](C)CC)C(C)C)C(=O)O [peptide 5] (Ac-VFRLKKWIQKVI-OH)	> 200	> 200	0.2% and 0%	–	50	6.25	50	–	0.25

Second part, led by results:

MICpep (E. coli BW25113 [2]) [µg/mL]	MIC of the peptide (MICpep) (E. coli BW25113 [3]) [µg/mL]	Structure (SMILES)	Hemolysis [1]	FICi (E. coli BW25113 [2])	MSCpep (E. coli BW25113 [2]) [µg/mL]	MSCery (E. coli BW25113 [3]) [µg/mL]	MSCpeptide, minimum synergistic concentration (E. coli BW25113 [3]) [µg/mL]	FICi (E. coli BW25113 [3])	MSCrif (E. coli BW25113 [2]) [µg/mL]
50	50	CC[C@H](C)[C@H](NC(=O)[C@@H](NC(=O)[C@H](CCCCN)NC(=O)[C@H](CCC(N)=O)NC(=O)[C@@H](NC(=O)[C@H](Cc1c[nH]c2ccccc12)NC(=O)[C@H](CCCCN)NC(=O)[C@H](CCCCN)NC(=O)[C@H](CC(C)C)NC(=O)[C@H](CCCNC(=N)N)NC(=O)[C@H](Cc1ccccc1)NC(=O)[C@@H](NC(C)=O)C(C)C)[C@@H](C)CC)C(C)C)C(N)=O [peptide 7] (Ac-VFRLKKWIQKVI-NH2)	4.6% and 5%	–	12.5	3.125	12.5	–	–
12.5	12.5	CC[C@H](C)[C@H](NC(=O)[C@@H](NC(=O)[C@H](CCCCN)NC(=O)[C@H](CCC(N)=O)NC(=O)[C@@H](NC(=O)[C@H](Cc1c[nH]c2ccccc12)NC(=O)[C@H](CCCCN)NC(=O)[C@H](CCCCN)NC(=O)[C@H](CC(C)C)NC(=O)[C@H](CCCNC(=N)N)NC(=O)[C@H](Cc1ccccc1)NC(=O)[C@H](C)N)[C@@H](C)CC)C(C)C)C(N)=O [peptide 8] (H-AFRLKKWIQKVI-NH2)	1.5% and 2%	0.1406	1.563	12.5	1.563	–	–
200	50	CC[C@H](C)[C@H](NC(=O)[C@@H](NC(=O)[C@H](CCCCN)NC(=O)[C@H](CCC(N)=O)NC(=O)[C@@H](NC(=O)[C@H](Cc1c[nH]c2ccccc12)NC(=O)[C@H](CCCCN)NC(=O)[C@H](CCCCN)NC(=O)[C@H](CC(C)C)NC(=O)[C@H](CCCNC(=N)N)NC(=O)[C@H](C)NC(=O)[C@@H](N)C(C)C)[C@@H](C)CC)C(C)C)C(N)=O [peptide 9] (H-VARLKKWIQKVI-NH2)	0.1% and 0%	0.1406	25	12.5	3.125	0.1250	–
12.5	6.25	CC[C@@H](C)[C@@H](NC(=O)[C@H](NC(=O)[C@@H](CCCCN)NC(=O)[C@@H](CCC(N)=O)NC(=O)[C@H](NC(=O)[C@@H](Cc1c[nH]c2ccccc12)NC(=O)[C@@H](CCCCN)NC(=O)[C@@H](CCCCN)NC(=O)[C@@H](CC(C)C)NC(=O)[C@@H](CCCNC(=N)N)NC(=O)[C@@H](Cc1ccccc1)NC(=O)[C@H](N)C(C)C)[C@H](C)CC)C(C)C)C(N)=O [peptide 20] (H-[dV][dF][dR][dL][dK][dK][dW][dI][dQ][dK][dV][dI]-NH2)	3.2% and 3%	0.2813	3.125	3.125	3.13	–	0.25
> 200	> 200	CC[C@H](C)[C@H](N)C(=O)N[C@H](C(=O)N[C@@H](CCCCN)C(=O)N[C@@H](CCC(N)=O)C(=O)N[C@H](C(=O)N[C@@H](Cc1c[nH]c2ccccc12)C(=O)N[C@@H](CCCCN)C(=O)N[C@@H](CCCCN)C(=O)N[C@@H](CC(C)C)C(=O)N[C@@H](CCCNC(=N)N)C(=O)N[C@@H](Cc1ccccc1)C(=O)N[C@H](C(N)=O)C(C)C)[C@@H](C)CC)C(C)C [peptide 21] (H-IVKQIWKKLRFV-NH2)	2.2% and 2%	0.3750	50	25	50	0.2500	2
